In patent publication US20230049576A1, “GLUTATHIONE-CONTAINING COMPOSITION” (priority 2019, published 2023):

Assays:
[1] = system: epidermal permeation barrier; conditions: previous study, Non-patent Document 2, Patent Document 1; cited from earlier work
[2] = target: thrombin (Homo sapiens, UniProt P00734); test: Measurement of thrombin activity (Rox prothrombin kit, chromogenic substrate, absorbance 405 nm); format: biochemical; conditions: glutathione 500 μg/ml to 2.5 mg/ml added to 40 ng/ml prothrombin; thrombin activator and substrate added; absorbance 405 nm every 40 seconds; FIG. 1
Description: A Rox prothrombin kit (Distributor: Rossix) was used for the measurement of thrombin activity. After glutathione (Distributor: Nacalai Tesque, Inc.) was added to a 40 ng/ml solution of prothrombin (Distributor: Invitrogen) at a concentration of 500 μg/ml to 2.5 mg/ml, the thrombin activator and thrombin substrate included in the kit were added and thrombin activity was measured.

[3] = system: cultured keratinocytes; conditions: Cryj1 100 ng/ml with glutathione 5 μg/ml
Description: Culture keratinocytes (Distributor: Kurabo) were cultured in the EPILIFE-KG2 medium (Distributor: Kurabo) for two days in a humidified atmosphere at 37° C. For the confluent culture, the medium was replaced with EPILIFE-KG2+Ca1.8 mM (Distributor: Kurabo), and then after 28 to 48 hours of incubation, with EPILIFE-KG2 +Cal containing 5 μM of Fura2 AM (Distributor: life technology), following by one hour of culturing. Then, it was replaced with a buffer (pH 7.4) containing NaCl 150 mM, KCI 5 mM, CaCl2 1.8 mM, MgCl2 1.2 mM, HEPES 25 mM, and D-glucose 10 mM, and Cryj1 (Distributor: HAYASHIBARA) was added to the buffer at the concentration of 100 ng/ml alone, or with glutathione (Distributor: Nacalai Tesque, Inc.) (5 μg/ml). Fluorescence was measured with a fluorescence microscope to measure changes in the intracellular calcium concentration.
The value of intracellular calcium concentration about 2 minutes after the addition of Cryj1 was calculated and quantified using the Aqua Cosmos software.

NC[C@H]1CC[C@H](C(=O)O)CC1 [tranexamic acid]
delay in thrombin-mediated recovery of the epidermal permeation barrier induced by Cryj1 [1]: blocks the delay in thrombin-mediated recovery of the epidermal permeation barrier

N[C@@H](CCC(=O)N[C@@H](CS)C(=O)NCC(=O)O)C(=O)O [Glutathione, glutathione]
thrombin activity (substrate decomposition rate) [2]: inhibit thrombin activity in a dose-dependent manner | calcium imaging over time (excitation of fluorescence) ([3]; FIG. 2): suppresses the excitation | intracellular calcium concentration about 2 minutes after the addition of Cryj1 ([3]; FIG. 3): significantly suppresses the calcium response elicited by Cryj1
